The nature of the data set: Physicochemical properties of the crystalline complex.

In the case of `N#Cc1ccc([C@@H]2O[C@H](CO)[C@@H](O)[C@H](O)[C@H]2O)cc1Cc1ccc(C2CC2)cc1.O=C(O)[C@@H]1CCCN1` [crystalline complex], the “tendency to absorb moisture” value is “does not show a high tendency to absorb moisture”. The “physical and chemical stability” value (various environmental conditions and during production of a medicament) was “high physical and chemical stability”.

The record behind these values is US10688116B2, “Treatment of metabolic disorders in equine animals” (Boehringer Ingelheim Vetmedica GmbH, priority 2014, dated 2020).
